These results are taken from PubChem BioAssay (NCI).

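Cultured in 96-well plates, cells were exposed to test compound for 48 hours across five concentrations. Abbreviation: GI50, concentration required for 50% inhibition of growth. TGI denotes the concentration required for complete inhibition of growth.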

Common to all, as to experiment: NCI anticancer screen, dose series, 48 h
The test system of assay [1] is SK-MEL-28 melanoma.
Assay [2] relates to OVCAR-8 ovarian.
Assay [3] relates to CCRF-CEM leukemia.
Assay [4] concerns CAKI-1 renal.
In assay [5] the test system is OVCAR-4 ovarian.
Assay [6] deals with TK-10 renal.
Assay [7] concerns A498 renal.
Assay [8] has as its system MDA-MB-435.
For assay [9], the system named is HL-60(TB) leukemia.
The subject of assay [10] is SNB-19 CNS.

On to `Cc1nc2sccn2c(=O)c1CCN1CCC(=C(c2ccc(F)cc2)c2ccc(F)cc2)CC1`, for which the GI50 is 13.4 µM in assay [1]; 17 µM in assay [2]; 0.559 µM in assay [3]; 12.9 µM in assay [4]; 12.6 µM in [5]; 13.9 µM in assay [6]. Also, the GI50 in [7] is 15.3 µM; in assay [8], 14.2 µM; in [9], 5.92 µM; in [10], 16 µM. Further, the TGI turned out to be 26.9 µM in assay [1]; 41 µM in [2]; 26.3 µM in assay [3]; 25.7 µM in [4]; 27.9 µM in [5]; 27.6 µM in [6]. Also, the TGI in [7] worked out at 29.4 µM; in assay [8], 28.2 µM; in assay [9], 26.5 µM; in assay [10], 30.3 µM.
For `O=C1OCC(c2cccs2)=C1Cl`, the GI50 in assay [1] was 76.8 µM; in assay [2], 90.1 µM; in assay [3], 84.1 µM; in [4], greater than 100 µM; in assay [5], 73.8 µM; in [6], 54.2 µM. Also, the GI50 was 17.6 µM in assay [7], greater than 100 µM in [8], greater than 100 µM in assay [9] and greater than 100 µM in assay [10]. Also, the TGI in assay [1], in assay [2], in assay [3], in assay [4], in assay [5] and in [6] was greater than 100 µM in each case. For the same compound, the TGI in assay [7] was 63.9 µM; in [8], greater than 100 µM; in assay [9] it was greater than 100 µM; in [10], greater than 100 µM.
On to `O=C1C(Br)=CC2(C=C1Br)CCN=c1c2c(O)c2nc3ccccc3c3ccnc1c23`, for which the GI50 in assay [1] was 0.803 µM; in [2] it was 0.918 µM; in assay [3] it was 0.132 µM; in assay [4] it was 1.01 µM; in [5], 0.788 µM; in assay [6] it was 3.47 µM. The GI50 in [7] is 1.6 µM; in assay [8], 1.18 µM; in assay [9], 2.07 µM; in [10], 4.59 µM. The TGI in assay [1] stood at 2.49 µM; in [2], 2.39 µM; in [3], 0.612 µM; in assay [4], 3.29 µM; in [5], 2.22 µM; in assay [6], 10.3 µM. For the same compound, the TGI in assay [7] was 6 µM; in assay [8], 3.09 µM; in assay [9], 5.59 µM; in assay [10], 12.1 µM.
Consider `CC(C)C1OC(=O)C=C1Sc1ccccc1` (stereo not given), for which the TGI in [1], in assay [2], in assay [3], in [4], in assay [5] and in assay [6] was greater than 100 µM in each case. In addition, the TGI in assay [7], in assay [8], in assay [9] and in assay [10] was greater than 100 µM in each case.
For the compound `COc1cc(NCCCCN=C(N)NC(N)=NC(C)C)c2ncccc2c1`, the GI50 in assay [1] is 12.1 µM; in [2] it was 8.18 µM; in assay [3] it was 4.57 µM; in assay [4], greater than 100 µM; in assay [5], 0.0797 µM; in assay [6], 10.8 µM. Moreover, the GI50 was 28.5 µM in [7], 12.9 µM in [8], 3.47 µM in assay [9] and 9.86 µM in assay [10]. Besides, the TGI was 24.7 µM in [1]; 27.7 µM in assay [2]; 27.3 µM in assay [3]; greater than 100 µM in [4]; 2.15 µM in assay [5]; 43.3 µM in assay [6]. Further, the TGI in assay [7] was greater than 100 µM; in assay [8], 26.7 µM; in assay [9], 10.9 µM; in assay [10] it was 26.3 µM.
In the case of `O=[N+]([O-])c1ccc(-c2nc(-c3ccccc3)c(-c3ccccc3)n2-c2ccccc2)cc1`, the GI50 in assay [1] is 2.99 µM; in [2] it was 3.19 µM; in [3], 2.83 µM; in [4] it was 3.04 µM; in assay [5], 2.94 µM; in assay [6] it was 4.01 µM. Moreover, the GI50 in assay [7] is 2.81 µM; in assay [8], 2.5 µM; in assay [9], 2.41 µM; in [10] it was 3.75 µM. Further, the TGI in assay [1] was 9.97 µM; in [2], greater than 100 µM; in [3] it was greater than 23.8 µM; in assay [4] it was greater than 28.4 µM; in [5], 14.9 µM; in [6], 16.9 µM. Besides, the TGI is 9.12 µM in assay [7], 7.63 µM in assay [8], 5.83 µM in [9] and greater than 48.8 µM in assay [10].
As to `Cc1cc2cc3cc(C)c(N(C)C)cc3nc2cc1N(C)C`, the GI50 is 2.8 µM in [1]; 2.83 µM in [2]; 8.99 µM in assay [3]; 2.22 µM in assay [4]; 2.25 µM in assay [5]; 4.03 µM in assay [6]. The GI50 in assay [7] was 4.32 µM; in [8], 2.77 µM; in assay [9] it was 0.34 µM; in [10] it was 3.56 µM. The TGI in [1] is 9.55 µM; in assay [2], 28.1 µM; in [3], greater than 100 µM; in assay [4], 25.3 µM; in assay [5], 19.5 µM; in [6], 31.2 µM. For the same compound, the TGI in assay [7] was 26.2 µM; in [8] it was 11.8 µM; in assay [9], greater than 100 µM; in [10], greater than 100 µM.
`CCOC(=O)c1sc2nc3sc(N=Nc4ccc(Cl)cc4)c(O)n3c(=S)c2c1C`: the GI50 in assay [1] is 28.4 µM; in [2], 29.4 µM; in assay [3], 32.2 µM; in [4], 28.1 µM; in assay [5], 47.4 µM; in assay [6], 25.9 µM. In addition, the GI50 in assay [7] is 24.1 µM; in assay [8], 35.2 µM; in assay [9] it was greater than 100 µM; in assay [10], 27.4 µM. Further, the TGI in [1] was greater than 100 µM; in assay [2], 95.6 µM; in assay [3], greater than 100 µM; in assay [4], 57.3 µM; in assay [5], greater than 100 µM; in assay [6], 96.4 µM. In addition, the TGI in assay [7] was 62.5 µM; in assay [8], greater than 100 µM; in assay [9] it was greater than 100 µM; in assay [10], greater than 100 µM.
